Assay results as given in the NIST ThermoML archive (doi:10.1016/j.jct.2010.11.004).

Assay: excess molar enthalpy (molar enthalpy of mixing); xn = mol fraction of the nth substance listed
Details: 298.15 K, 101 kPa, Liquid, ISOTHERMAL TITRATION CALORIMETRY

CCCCCCCCC(C)=O [2-decanone] + CCCCCCCCCCCC
Details	excess molar enthalpy [kcal/mol]
x1 = 0.0258	0.0318
x1 = 0.0503	0.059
x1 = 0.0736	0.0822
x1 = 0.0958	0.102
x1 = 0.1169	0.119
x1 = 0.1371	0.134
x1 = 0.1612	0.15
x1 = 0.1841	0.164
x1 = 0.2057	0.175
x1 = 0.2262	0.185
x1 = 0.2456	0.193
x1 = 0.2641	0.2
x1 = 0.2847	0.206
x1 = 0.3042	0.211
x1 = 0.3226	0.216
x1 = 0.3401	0.219
x1 = 0.3567	0.222
x1 = 0.3725	0.224
x1 = 0.3897	0.226
x1 = 0.406	0.227
x1 = 0.4215	0.228
x1 = 0.4362	0.228
x1 = 0.4501	0.227
x1 = 0.4634	0.227
x1 = 0.4782	0.226
x1 = 0.4923	0.225
x1 = 0.5055	0.224
x1 = 0.5182	0.222
x1 = 0.5302	0.22
x1 = 0.5416	0.218
x1 = 0.5543	0.216
x1 = 0.5663	0.214
x1 = 0.5777	0.211
x1 = 0.5885	0.209
x1 = 0.5987	0.206
x1 = 0.6049	0.204
x1 = 0.6179	0.201
x1 = 0.6311	0.197
x1 = 0.6448	0.193
x1 = 0.6592	0.188
x1 = 0.6742	0.183
x1 = 0.6899	0.178
x1 = 0.704	0.173
x1 = 0.7187	0.167
x1 = 0.7341	0.161
x1 = 0.7501	0.154
x1 = 0.7668	0.146
x1 = 0.7843	0.137
x1 = 0.8	0.13
x1 = 0.8163	0.121
x1 = 0.8334	0.112
x1 = 0.8511	0.102
x1 = 0.8696	0.0918
x1 = 0.889	0.0798
x1 = 0.9057	0.0686
x1 = 0.9231	0.0571
x1 = 0.9412	0.0442
x1 = 0.96	0.0308
x1 = 0.9796	0.0158

CCCCCCCCC(C)=O [2-decanone] + CCCCCCCCCCCCCC
Details	excess molar enthalpy [kcal/mol]
x1 = 0.0282	0.0361
x1 = 0.0549	0.0664
x1 = 0.0805	0.092
x1 = 0.1041	0.114
x1 = 0.1268	0.132
x1 = 0.1484	0.148
x1 = 0.1741	0.165
x1 = 0.1983	0.18
x1 = 0.2212	0.192
x1 = 0.2427	0.202
x1 = 0.2632	0.211
x1 = 0.2825	0.218
x1 = 0.3044	0.225
x1 = 0.325	0.23
x1 = 0.3444	0.235
x1 = 0.3628	0.238
x1 = 0.3801	0.241
x1 = 0.3965	0.243
x1 = 0.4145	0.245
x1 = 0.4313	0.245
x1 = 0.4472	0.246
x1 = 0.4623	0.246
x1 = 0.4765	0.245
x1 = 0.4901	0.245
x1 = 0.5029	0.244
x1 = 0.5151	0.242
x1 = 0.5292	0.241
x1 = 0.5425	0.239
x1 = 0.555	0.236
x1 = 0.5669	0.234
x1 = 0.5782	0.232
x1 = 0.5889	0.229
x1 = 0.5991	0.227
x1 = 0.6088	0.224
x1 = 0.6201	0.221
x1 = 0.6308	0.217
x1 = 0.6408	0.214
x1 = 0.6504	0.211
x1 = 0.6594	0.208
x1 = 0.668	0.205
x1 = 0.6762	0.202
x1 = 0.684	0.199
x1 = 0.7031	0.189
x1 = 0.7191	0.182
x1 = 0.7334	0.176
x1 = 0.7483	0.169
x1 = 0.7638	0.162
x1 = 0.7799	0.154
x1 = 0.7968	0.145
x1 = 0.8144	0.135
x1 = 0.8298	0.126
x1 = 0.8458	0.116
x1 = 0.8624	0.106
x1 = 0.8797	0.0939
x1 = 0.8977	0.0815
x1 = 0.9133	0.07
x1 = 0.9294	0.0578
x1 = 0.9461	0.0452
x1 = 0.9634	0.0311
x1 = 0.9814	0.016

CCCCCCCCC(C)=O [2-decanone] + CCCCCCCCCCCCCCCC
Details	excess molar enthalpy [kcal/mol]
x1 = 0.0372	0.048
x1 = 0.0716	0.087
x1 = 0.1038	0.119
x1 = 0.1337	0.145
x1 = 0.1617	0.167
x1 = 0.188	0.185
x1 = 0.2169	0.203
x1 = 0.2437	0.217
x1 = 0.2688	0.229
x1 = 0.2923	0.239
x1 = 0.3143	0.246
x1 = 0.335	0.253
x1 = 0.3574	0.258
x1 = 0.3784	0.263
x1 = 0.3981	0.266
x1 = 0.4166	0.268
x1 = 0.434	0.27
x1 = 0.4503	0.27
x1 = 0.4686	0.27
x1 = 0.4857	0.27
x1 = 0.5017	0.269
x1 = 0.5168	0.268
x1 = 0.531	0.266
x1 = 0.5443	0.264
x1 = 0.559	0.261
x1 = 0.5728	0.259
x1 = 0.5858	0.256
x1 = 0.598	0.253
x1 = 0.6095	0.25
x1 = 0.6204	0.247
x1 = 0.6324	0.243
x1 = 0.6436	0.239
x1 = 0.6542	0.236
x1 = 0.6641	0.232
x1 = 0.6735	0.228
x1 = 0.6824	0.224
x1 = 0.6964	0.217
x1 = 0.7102	0.21
x1 = 0.7245	0.204
x1 = 0.7393	0.197
x1 = 0.7521	0.191
x1 = 0.7655	0.184
x1 = 0.7793	0.176
x1 = 0.7936	0.168
x1 = 0.8084	0.159
x1 = 0.8238	0.149
x1 = 0.8372	0.14
x1 = 0.8511	0.13
x1 = 0.8654	0.12
x1 = 0.8802	0.109
x1 = 0.8955	0.0966
x1 = 0.9114	0.0837
x1 = 0.9251	0.0722
x1 = 0.9391	0.0598
x1 = 0.9537	0.0461
x1 = 0.9686	0.0318
x1 = 0.9841	0.0163

CCCCCOCCCCC [dipentyl ether] + CCCCCCCCCCCC
Details	excess molar enthalpy [kcal/mol]
x1 = 0.0242	0.00454
x1 = 0.0473	0.00884
x1 = 0.0693	0.0122
x1 = 0.0903	0.0155
x1 = 0.1104	0.0184
x1 = 0.1296	0.021
x1 = 0.148	0.0234
x1 = 0.1657	0.0256
x1 = 0.1869	0.028
x1 = 0.2071	0.0301
x1 = 0.2262	0.032
x1 = 0.2445	0.0337
x1 = 0.2619	0.0351
x1 = 0.2786	0.0363
x1 = 0.2989	0.0378
x1 = 0.3181	0.039
x1 = 0.3363	0.0399
x1 = 0.3535	0.0409
x1 = 0.3699	0.0416
x1 = 0.3855	0.0423
x1 = 0.4003	0.0425
x1 = 0.4144	0.0428
x1 = 0.431	0.0433
x1 = 0.4466	0.0433
x1 = 0.4614	0.0435
x1 = 0.4754	0.0435
x1 = 0.4887	0.0435
x1 = 0.5014	0.0433
x1 = 0.5129	0.0433
x1 = 0.5241	0.0433
x1 = 0.5358	0.043
x1 = 0.5481	0.043
x1 = 0.5609	0.0428
x1 = 0.5743	0.0425
x1 = 0.5884	0.0423
x1 = 0.6031	0.0418
x1 = 0.6161	0.0413
x1 = 0.6297	0.0409
x1 = 0.644	0.0402
x1 = 0.6589	0.0397
x1 = 0.6745	0.0387
x1 = 0.6908	0.0378
x1 = 0.7056	0.0366
x1 = 0.721	0.0354
x1 = 0.7371	0.0342
x1 = 0.7539	0.0327
x1 = 0.7715	0.0313
x1 = 0.79	0.0294
x1 = 0.8057	0.028
x1 = 0.8221	0.0261
x1 = 0.8391	0.0241
x1 = 0.8569	0.022
x1 = 0.8754	0.0196
x1 = 0.8947	0.0167
x1 = 0.9107	0.0146
x1 = 0.9273	0.0122
x1 = 0.9445	0.00956
x1 = 0.9623	0.00645
x1 = 0.9808	0.00335

CCCCCOCCCCC [dipentyl ether] + CCCCCCCCCCCCCC
Details	excess molar enthalpy [kcal/mol]
x1 = 0.0299	0.00693
x1 = 0.0581	0.0129
x1 = 0.0847	0.0182
x1 = 0.1099	0.0227
x1 = 0.1337	0.0265
x1 = 0.1562	0.0304
x1 = 0.1776	0.0335
x1 = 0.198	0.0361
x1 = 0.22	0.0392
x1 = 0.2447	0.0416
x1 = 0.266	0.044
x1 = 0.2862	0.0459
x1 = 0.3054	0.0473
x1 = 0.3235	0.0485
x1 = 0.3407	0.0497
x1 = 0.357	0.0507
x1 = 0.3761	0.0519
x1 = 0.394	0.0526
x1 = 0.411	0.0531
x1 = 0.427	0.0535
x1 = 0.4422	0.0538
x1 = 0.4566	0.054
x1 = 0.4702	0.0543
x1 = 0.4832	0.0543
x1 = 0.4927	0.0543
x1 = 0.5031	0.0545
x1 = 0.5139	0.0545
x1 = 0.5253	0.0547
x1 = 0.5371	0.0545
x1 = 0.5494	0.0545
x1 = 0.5604	0.0543
x1 = 0.5718	0.054
x1 = 0.5838	0.0535
x1 = 0.5962	0.0533
x1 = 0.6092	0.0528
x1 = 0.6228	0.0521
x1 = 0.6369	0.0511
x1 = 0.6502	0.0507
x1 = 0.664	0.0497
x1 = 0.6784	0.0488
x1 = 0.6934	0.0476
x1 = 0.7092	0.0464
x1 = 0.7256	0.0449
x1 = 0.7398	0.0435
x1 = 0.7546	0.0421
x1 = 0.7699	0.0404
x1 = 0.7859	0.0382
x1 = 0.8026	0.0361
x1 = 0.8199	0.0337
x1 = 0.8353	0.0313
x1 = 0.8513	0.0289
x1 = 0.8679	0.0263
x1 = 0.8852	0.0234
x1 = 0.9032	0.0203
x1 = 0.918	0.0177
x1 = 0.9333	0.0146
x1 = 0.9491	0.0112
x1 = 0.9655	0.00765
x1 = 0.9824	0.00406

CCCCCOCCCCC [dipentyl ether] + CCCCCCCCCCCCCCCC
Details	excess molar enthalpy [kcal/mol]
x1 = 0.0349	0.00884
x1 = 0.0674	0.0165
x1 = 0.0979	0.0229
x1 = 0.1264	0.0287
x1 = 0.1531	0.0335
x1 = 0.1783	0.0378
x1 = 0.2066	0.0423
x1 = 0.233	0.0461
x1 = 0.2577	0.0495
x1 = 0.2809	0.0523
x1 = 0.3027	0.0545
x1 = 0.3231	0.0564
x1 = 0.3459	0.0583
x1 = 0.3673	0.0598
x1 = 0.3873	0.0612
x1 = 0.4061	0.0621
x1 = 0.4238	0.0629
x1 = 0.4405	0.0633
x1 = 0.4593	0.0638
x1 = 0.4768	0.0641
x1 = 0.4933	0.0643
x1 = 0.5087	0.0643
x1 = 0.5158	0.0645
x1 = 0.5271	0.0645
x1 = 0.5389	0.0643
x1 = 0.5491	0.0643
x1 = 0.5598	0.0641
x1 = 0.5706	0.0638
x1 = 0.5823	0.0633
x1 = 0.5943	0.0629
x1 = 0.6067	0.0624
x1 = 0.6197	0.0617
x1 = 0.6333	0.0607
x1 = 0.645	0.06
x1 = 0.6527	0.059
x1 = 0.6699	0.0578
x1 = 0.6831	0.0566
x1 = 0.6968	0.0552
x1 = 0.7111	0.0535
x1 = 0.7238	0.0519
x1 = 0.737	0.0504
x1 = 0.7506	0.0485
x1 = 0.7648	0.0464
x1 = 0.7795	0.0442
x1 = 0.7984	0.0416
x1 = 0.8182	0.039
x1 = 0.8315	0.0363
x1 = 0.8512	0.0332
x1 = 0.8718	0.0301
x1 = 0.8935	0.0265
x1 = 0.9162	0.0227
x1 = 0.9292	0.0196
x1 = 0.9425	0.0163
x1 = 0.9563	0.0124
x1 = 0.9704	0.0086
x1 = 0.985	0.00454
